Assay results from patent publication US20230416330A1, “Optimized GIP Peptide Analogues” (Antag Therapeutics ApS, priority 2019, published 2023).
Starred links: 1 amine or outer side, 2 acyl side, 3 side chain; linkers in the order of their positions; H or OH if unused. Non-standard residues stand in square brackets, D forms with d. Residues, ends and D or L forms follow the SMILES beside them. Groups on a side chain read outwards from the residue. *: point of attachment. C18 diacid = O=C(O)CCCCCCCCCCCCCCCCC(=O)*; C16 diacid = O=C(O)CCCCCCCCCCCCCCC(=O)*; γGlu = O=C(O)[C@H](CCC(=O)[*:2])N[*:1]; Nle = CCCC[C@H](N)C(=O)O; AEEA = NCCOCCOCC(=O)O; Aib = CC(C)(N)C(=O)O

How the values were obtained:
[1] = target: T1, human GIP receptor (Homo sapiens, UniProt P48546); test: cAMP assay Alternative 2 (Gaddum assay), antagonist potency pKb; format: cell-based; settings: Table 2C; Gaddum equation, single antagonist dose; HEK-293 hGIPR; read-out: nM (Kb)
T1 construct: host or cells: HEK-293 cells, transient transfection (Lipofectamine 2000), cDNA in pCMV-Script vector
T1 sequence (P48546 22-466): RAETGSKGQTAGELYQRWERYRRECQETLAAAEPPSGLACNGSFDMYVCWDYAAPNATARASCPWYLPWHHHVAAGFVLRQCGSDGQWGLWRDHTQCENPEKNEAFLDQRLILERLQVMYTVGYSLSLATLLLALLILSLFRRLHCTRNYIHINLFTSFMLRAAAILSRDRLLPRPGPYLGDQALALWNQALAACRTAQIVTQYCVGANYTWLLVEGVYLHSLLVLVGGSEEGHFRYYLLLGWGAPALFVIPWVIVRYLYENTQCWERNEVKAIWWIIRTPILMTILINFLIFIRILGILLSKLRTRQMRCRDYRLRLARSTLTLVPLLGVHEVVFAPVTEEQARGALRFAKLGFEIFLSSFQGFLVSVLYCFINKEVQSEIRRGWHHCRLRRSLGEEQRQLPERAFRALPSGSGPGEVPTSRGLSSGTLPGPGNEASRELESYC
Experimental: HEK293 cells were cultured in 10% CO2 and 37° C. in Dulbecco's modified Eagle's medium supplemented with 10% fetal bovine serum, 2 mM glutamine, 180 units/ml penicillin, and 45 µg/ml streptomycin. Transient transfection with hGIPR for the CisBio assay from Table 2C was performed by using Lipofectamine 2000.
Antagonist potency (pKb) was estimated in a functional setting. The estimated pKb values were calculated from the shifts of the agonist-concentration-response curves in the presence of a single dose of GIP peptide antagonists using the Gaddum equation: pKb=log(DR-1)-log(B), where DR (EC50′/EC50) is the dose ratio calculated from EC50 of GIP1-42 obtained in the presence and absence (EC50) of antagonist, and B is the antagonist concentration used.
The in vitro functional assessment of compounds towards human GIP receptor was determined in HEK-293 cells transiently expressing the receptor. On the day of the assay, cells were resuspended in HBSS buffer (Gibco, 14025-50) supplemented with […] (Gibco, 15630-106), 0.1% Pluronic F-68 (Gibco, 24040-032) and 0.1% casein (Sigma, C4765), and plated in 384-well plates at a density of 3500 cells/well. The GIP peptide analogues of the present disclosure were diluted in HBSS buffer supplemented with 20 mM HEPES, 0.1% pluronic, 0.1% casein and 500 uM IBMX. […] Increasing dose of agonist (GIP1-42) was subsequently added to cells and incubated for additionally 30 min at 37° C. The intracellular cAMP was quantitatively determined using the CisBio cAMP Dynamic 2 HTRF Assay Kit. The assay is based on a competition between native cAMP produced by cells and cAMP labeled with the dye d2 for binding to a cryptate labeled antibody. The specific signal (i.e. energy transfer signal) is inversely proportional to the concentration of cAMP in the sample.
The cAMP-d2 conjugate and the antibody anti-cAMP-Cryptate, both diluted in lysis buffer provided in the kit, were added to the cells according to the manufacturer's protocol. The resulting competitive assay was incubated for 60 minutes at room temperature, and the signal was detected by using a PerkinElmer Envision® instrument with excitation at 320 nm and emission at 665 nm and 620 nm. The HTRF ratio (emission at 665 nm/620 nm*10,000) is inversely proportional to the amount of cAMP present and is converted to nM cAMP per well using a cAMP standard curve.

[2] = Solubility by visual inspection of peptide solutions; format: physicochemical
How it was run: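 Peptides dissolved at 1, 5, 7.5 or 15 mg/ml in 50 mM sodium phosphate pH 7.4 or water adjusted to pH 7.4 with NaOH, with gentle mixing. Immediate solubility judged visually as a clear, colorless solution.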

[3] = target: T1, human GIP receptor; test: cAMP assay Alternative 1 (CisBio assay), GIPR antagonism; format: cell-based; settings: Table 2B; % inhibition of Emax
How it was run: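 HEK293 cells transiently transfected with hGIPR, compounds diluted in HBSS/HEPES/pluronic/casein with 500 uM IBMX; decrease in intracellular cAMP read by HTRF (665/620 nm) and converted via cAMP standard curve. pIC50 from four-parameter fit; agonism tested separately after 30 min at 37° C.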

[4] = Physical stability: fibril formation in Thioflavin T (ThT) assay with agitation; format: physicochemical; settings: 25° C., agitation
How it was run: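 Peptides at 1, 5, 7.5 or 15 mg/ml in 50 mM sodium phosphate pH 7.4 or in water adjusted to pH 7.4 with NaOH, filtered 0.22 μm, with ThT added. Wells held a 3 mm silica bead under 300 rpm orbital agitation at 25° C. Emission at 486 nm tracked continuously; lag time = 10% of transition above baseline.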

SMILES: CC[C@H](C)[C@H](NC(=O)[C@H](CCCCN)NC(=O)[C@H](CCC(=O)O)NC(=O)[C@H](CCSC)NC(=O)C(C)(C)NC(=O)[C@@H](NC(=O)[C@H](CO)NC(=O)[C@H](Cc1ccc(O)cc1)NC(=O)[C@H](CCC(=O)O)NC(=O)[C@H](CO)NC(=O)[C@@H](NC(=O)[C@H](Cc1ccccc1)NC(=O)[C@@H](NC(=O)CNC(=O)[C@@H](N)CCC(=O)O)[C@@H](C)O)[C@@H](C)CC)[C@@H](C)CC)C(=O)N[C@@H](CCCCNC(=O)CCCCCCCCCCCCCCC(=O)O)C(=O)N[C@@H](CCC(N)=O)C(=O)N[C@@H](CCC(N)=O)C(=O)N[C@@H](CC(=O)O)C(=O)N[C@@H](Cc1ccccc1)C(=O)N[C@H](C(=O)N[C@@H](CCC(=O)O)C(=O)N[C@@H](Cc1c[nH]c2ccccc12)C(=O)N[C@@H](CC(C)C)C(=O)N[C@@H](CC(C)C)C(=O)N[C@@H](C)C(=O)N[C@@H](CCC(N)=O)C(=O)N[C@@H](CCCCN)C(=O)N1CCC[C@H]1C(=O)N[C@@H](CO)C(=O)N[C@@H](CO)C(=O)NCC(=O)N[C@@H](C)C(=O)N1CCC[C@H]1C(=O)N1CCC[C@H]1C(=O)N1CCC[C@H]1C(=O)N[C@@H](CO)C(=O)O)C(C)C [AT716] (H-EGTFISEYSI[Aib]MEKIK(C16 diacid)QQDFVEWLLAQKPSSGAPPPS-OH; N-terminus assumed)
- Kb [1]: 0.29 nM

SMILES: CC[C@H](C)[C@H](NC(=O)[C@H](CCCCN)NC(=O)[C@H](CC(=O)O)NC(=O)[C@H](CC(C)C)NC(=O)C(C)(C)NC(=O)[C@@H](NC(=O)[C@H](CO)NC(=O)[C@H](Cc1ccc(O)cc1)NC(=O)[C@H](CC(=O)O)NC(=O)[C@H](CO)NC(=O)[C@@H](NC(=O)[C@H](Cc1ccccc1)NC(=O)[C@@H](NC(=O)CNC(=O)[C@@H](N)CCC(=O)O)[C@@H](C)O)[C@@H](C)CC)[C@@H](C)CC)C(=O)N[C@@H](CCCCNC(=O)COCCOCCNC(=O)COCCOCCNC(=O)CC[C@H](NC(=O)CCCCCCCCCCCCCCCCC(=O)O)C(=O)O)C(=O)N[C@@H](CCC(N)=O)C(=O)N[C@@H](CCC(N)=O)C(=O)N[C@@H](CC(=O)O)C(=O)N[C@@H](Cc1ccccc1)C(=O)N[C@H](C(=O)N[C@@H](CCC(=O)O)C(=O)N[C@@H](Cc1c[nH]c2ccccc12)C(=O)N[C@@H](CC(C)C)C(=O)N[C@@H](CC(C)C)C(=O)N[C@@H](C)C(=O)N[C@@H](CCC(N)=O)C(=O)N[C@@H](CCCCN)C(=O)N1CCC[C@H]1C(=O)N[C@@H](CO)C(=O)N[C@@H](CO)C(=O)NCC(=O)N[C@@H](C)C(=O)N1CCC[C@H]1C(=O)N1CCC[C@H]1C(=O)N1CCC[C@H]1C(=O)N[C@@H](CO)C(=O)O)C(C)C [AT685] (H-EGTFISDYSI[Aib]LDKIK([AEEA-AEEA-γGlu-C18 diacid])QQDFVEWLLAQKPSSGAPPPS-OH; N-terminus assumed)
- Visual appearance ([2]; 1 mg/ml, TFA, Phosphate (7.4)): Clear
- cAMP antagonism % inhib [3]: 83%
- Avr lag time (h) ([4]; 1 mg/ml, TFA, Phosphate (7.4)): fnd (Fnd = fibrils not detected within experiment time (96 hours) with agitation.)

SMILES: CCCC[C@H](NC(=O)C(C)(C)NC(=O)[C@@H](NC(=O)[C@H](CO)NC(=O)[C@H](Cc1ccc(O)cc1)NC(=O)[C@H](CCC(=O)O)NC(=O)[C@H](CO)NC(=O)[C@@H](NC(=O)[C@H](Cc1ccccc1)NC(=O)[C@@H](NC(=O)CNC(=O)[C@@H](N)CCC(=O)O)[C@@H](C)O)[C@@H](C)CC)[C@@H](C)CC)C(=O)N[C@@H](CCC(=O)O)C(=O)N[C@@H](CCCCN)C(=O)N[C@H](C(=O)N[C@@H](CCCCNC(=O)COCCOCCNC(=O)COCCOCCNC(=O)CC[C@H](NC(=O)CCCCCCCCCCCCCCCCC(=O)O)C(=O)O)C(=O)N[C@@H](CCC(N)=O)C(=O)N[C@@H](CCC(N)=O)C(=O)N[C@@H](CCC(=O)O)C(=O)N[C@@H](Cc1ccccc1)C(=O)N[C@H](C(=O)N[C@@H](CCC(=O)O)C(=O)N[C@@H](Cc1c[nH]c2ccccc12)C(=O)N[C@@H](CC(C)C)C(=O)N[C@@H](CC(C)C)C(=O)N[C@@H](C)C(=O)N[C@@H](CCC(N)=O)C(=O)N[C@@H](CCCCN)C(=O)N1CCC[C@H]1C(=O)N[C@@H](CO)C(=O)N[C@@H](CO)C(=O)NCC(=O)N[C@@H](C)C(=O)N1CCC[C@H]1C(=O)N1CCC[C@H]1C(=O)N1CCC[C@H]1C(=O)N[C@@H](CO)C(=O)O)C(C)C)[C@@H](C)CC [AT696] (H-EGTFISEYSI[Aib][Nle]EKIK([AEEA-AEEA-γGlu-C18 diacid])QQEFVEWLLAQKPSSGAPPPS-OH; N-terminus assumed)
- Visual appearance ([2]; 1 mg/ml, TFA, Phosphate (7.4)): Clear
- Visual appearance ([2]; 5 mg/ml, Na, MilliQ (8)): Clear
- Visual appearance ([2]; 7.5 mg/ml, Na, MilliQ (8)): Clear
- Visual appearance ([2]; 15 mg/ml, Na, MilliQ (8)): Clear
- cAMP antagonism % inhib [3]: 97%
- Avr lag time (h) ([4]; 1 mg/ml, TFA, Phosphate (7.4)): fnd (Fnd = fibrils not detected within experiment time (96 hours) with agitation.)
- Avr lag time (h) ([4]; 5 mg/ml, Na, MilliQ (8)): fnd (Fnd = fibrils not detected within experiment time (96 hours) with agitation.)
- Avr lag time (h) ([4]; 7.5 mg/ml, Na, MilliQ (8)): fnd (Fnd = fibrils not detected within experiment time (96 hours) with agitation.)
- Avr lag time (h) ([4]; 15 mg/ml, Na, MilliQ (8)): fnd (Fnd = fibrils not detected within experiment time (96 hours) with agitation.)

SMILES: CC[C@H](C)[C@H](NC(=O)[C@H](CO)NC(=O)[C@H](Cc1ccc(O)cc1)NC(=O)[C@H](CC(=O)O)NC(=O)[C@H](CO)NC(=O)[C@@H](NC(=O)[C@H](Cc1ccccc1)NC(=O)[C@@H](NC(=O)CNC(=O)[C@@H](N)CCC(=O)O)[C@@H](C)O)[C@@H](C)CC)C(=O)N[C@@H](C)C(=O)N[C@@H](CC(C)C)C(=O)N[C@@H](CC(=O)O)C(=O)N[C@@H](CCCCN)C(=O)N[C@H](C(=O)N[C@@H](CCCCNC(=O)CCCCCCCCCCCCCCC(=O)O)C(=O)N[C@@H](CCC(N)=O)C(=O)N[C@@H](CCC(N)=O)C(=O)N[C@@H](CC(=O)O)C(=O)N[C@@H](Cc1ccccc1)C(=O)N[C@H](C(=O)N[C@@H](CCC(=O)O)C(=O)N[C@@H](Cc1c[nH]c2ccccc12)C(=O)N[C@@H](CC(C)C)C(=O)N[C@@H](CC(C)C)C(=O)N[C@@H](C)C(=O)N[C@@H](CCC(N)=O)C(=O)N[C@@H](CCCCN)C(=O)N1CCC[C@H]1C(=O)N[C@@H](CO)C(=O)N[C@@H](CO)C(=O)NCC(=O)N[C@@H](C)C(=O)N1CCC[C@H]1C(=O)N1CCC[C@H]1C(=O)N1CCC[C@H]1C(=O)N[C@@H](CO)C(=O)O)C(C)C)[C@@H](C)CC [AT668] (H-EGTFISDYSIALDKIK(C16 diacid)QQDFVEWLLAQKPSSGAPPPS-OH; N-terminus assumed)
- Visual appearance ([2]; 1 mg/ml, TFA, Phosphate (7.4)): Clear
- cAMP antagonism % inhib [3]: 92%
- Avr lag time (h) ([4]; 1 mg/ml, TFA, Phosphate (7.4)): fnd (Fnd = fibrils not detected within experiment time (96 hours) with agitation.)
